Measured values: article PMC7827406, “Structure–Activity Relationship (SAR) Study of Spautin-1 to Entail the Discovery of Novel NEK4 Inhibitors” (International Journal of Molecular Sciences, 2021)
Like-named read-outs stand apart in the source and are kept apart here.

Key:
Experiment in all cases: biochemical
Set-up in all cases: Eurofins KinaseProfiler full panel at Km ATP, residual kinase activity (%) relative to DMSO
DDR1(h) = DDR1(h) (Homo sapiens, UniProt Q08345)
Outline: (§1)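 Radiometric kinase activity assays were run with ATP at Km and compounds at 10 µM, and remaining activity (%) was reported. A separate competitive binding screen measured DNA-tagged kinase displaced from immobilized active-site ligands by qPCR, giving percent kinase still bound at 10 µM compound in DMSO.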

TSSK3(h) = target: T1, TSSK3(h) (Homo sapiens, UniProt Q96PN8)
T1 sequence (Q96PN8 1-268): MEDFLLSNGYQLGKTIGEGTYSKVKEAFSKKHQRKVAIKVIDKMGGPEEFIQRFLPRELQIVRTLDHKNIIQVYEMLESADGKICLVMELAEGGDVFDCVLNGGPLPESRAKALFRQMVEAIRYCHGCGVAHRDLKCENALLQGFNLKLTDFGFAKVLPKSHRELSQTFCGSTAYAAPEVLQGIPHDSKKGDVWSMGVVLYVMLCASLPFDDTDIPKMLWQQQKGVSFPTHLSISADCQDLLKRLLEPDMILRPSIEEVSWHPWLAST
Outline: as §1

PTK5(h) = target: T2, PTK5(h) (Homo sapiens, UniProt P42685)
T2 construct: gene FRK
T2 sequence (P42685 whole entry): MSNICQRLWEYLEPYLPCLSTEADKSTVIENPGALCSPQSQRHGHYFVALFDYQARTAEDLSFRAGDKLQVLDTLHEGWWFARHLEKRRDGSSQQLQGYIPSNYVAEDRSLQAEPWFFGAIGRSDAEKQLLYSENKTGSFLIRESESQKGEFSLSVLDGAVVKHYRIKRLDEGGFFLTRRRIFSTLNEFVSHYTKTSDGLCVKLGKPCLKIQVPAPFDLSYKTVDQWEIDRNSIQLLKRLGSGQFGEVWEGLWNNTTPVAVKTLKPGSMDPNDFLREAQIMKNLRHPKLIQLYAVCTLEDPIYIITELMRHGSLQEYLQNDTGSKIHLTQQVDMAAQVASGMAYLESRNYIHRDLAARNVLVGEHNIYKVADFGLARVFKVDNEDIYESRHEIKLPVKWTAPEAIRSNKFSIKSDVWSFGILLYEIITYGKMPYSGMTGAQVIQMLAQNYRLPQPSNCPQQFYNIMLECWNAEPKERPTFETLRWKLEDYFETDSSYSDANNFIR
Outline: as §1

HIPK2(h) = HIPK2(h) (Homo sapiens, UniProt Q9H2X6)
Chain of HIPK2(h) (Q9H2X6 whole entry): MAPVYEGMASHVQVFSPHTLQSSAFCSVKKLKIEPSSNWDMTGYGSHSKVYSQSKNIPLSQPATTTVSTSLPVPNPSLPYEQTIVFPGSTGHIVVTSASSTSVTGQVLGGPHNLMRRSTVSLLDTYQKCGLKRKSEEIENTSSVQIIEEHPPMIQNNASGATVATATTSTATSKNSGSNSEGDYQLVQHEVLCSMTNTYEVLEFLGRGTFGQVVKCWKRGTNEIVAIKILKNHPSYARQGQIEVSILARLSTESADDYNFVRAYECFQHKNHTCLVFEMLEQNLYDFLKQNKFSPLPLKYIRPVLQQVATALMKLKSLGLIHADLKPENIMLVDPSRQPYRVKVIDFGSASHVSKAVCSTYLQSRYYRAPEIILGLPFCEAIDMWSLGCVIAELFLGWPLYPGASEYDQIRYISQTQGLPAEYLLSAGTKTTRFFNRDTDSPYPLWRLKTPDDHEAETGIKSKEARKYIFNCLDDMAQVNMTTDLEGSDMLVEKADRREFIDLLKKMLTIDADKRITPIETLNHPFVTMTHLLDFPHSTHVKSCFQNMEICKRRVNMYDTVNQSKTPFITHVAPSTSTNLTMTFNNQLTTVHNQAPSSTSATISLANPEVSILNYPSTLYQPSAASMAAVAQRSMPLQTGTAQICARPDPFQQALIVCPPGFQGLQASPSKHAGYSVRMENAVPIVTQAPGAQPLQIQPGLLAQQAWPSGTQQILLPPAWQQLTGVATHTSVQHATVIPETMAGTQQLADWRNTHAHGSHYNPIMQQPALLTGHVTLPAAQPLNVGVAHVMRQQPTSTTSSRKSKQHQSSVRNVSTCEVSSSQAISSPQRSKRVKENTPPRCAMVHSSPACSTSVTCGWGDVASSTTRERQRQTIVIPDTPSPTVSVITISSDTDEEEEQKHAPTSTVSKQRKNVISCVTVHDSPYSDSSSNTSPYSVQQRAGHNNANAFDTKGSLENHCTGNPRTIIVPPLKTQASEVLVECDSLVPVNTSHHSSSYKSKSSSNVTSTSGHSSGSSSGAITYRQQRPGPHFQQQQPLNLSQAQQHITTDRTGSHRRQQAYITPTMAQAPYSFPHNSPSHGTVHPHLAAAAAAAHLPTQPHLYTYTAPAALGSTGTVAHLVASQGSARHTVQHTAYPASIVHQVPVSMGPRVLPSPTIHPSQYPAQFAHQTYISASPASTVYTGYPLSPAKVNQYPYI
Outline: as §1

EphA1(h) = target: T3, EphA1(h) (Homo sapiens, UniProt P21709)
T3 sequence (P21709 1-976): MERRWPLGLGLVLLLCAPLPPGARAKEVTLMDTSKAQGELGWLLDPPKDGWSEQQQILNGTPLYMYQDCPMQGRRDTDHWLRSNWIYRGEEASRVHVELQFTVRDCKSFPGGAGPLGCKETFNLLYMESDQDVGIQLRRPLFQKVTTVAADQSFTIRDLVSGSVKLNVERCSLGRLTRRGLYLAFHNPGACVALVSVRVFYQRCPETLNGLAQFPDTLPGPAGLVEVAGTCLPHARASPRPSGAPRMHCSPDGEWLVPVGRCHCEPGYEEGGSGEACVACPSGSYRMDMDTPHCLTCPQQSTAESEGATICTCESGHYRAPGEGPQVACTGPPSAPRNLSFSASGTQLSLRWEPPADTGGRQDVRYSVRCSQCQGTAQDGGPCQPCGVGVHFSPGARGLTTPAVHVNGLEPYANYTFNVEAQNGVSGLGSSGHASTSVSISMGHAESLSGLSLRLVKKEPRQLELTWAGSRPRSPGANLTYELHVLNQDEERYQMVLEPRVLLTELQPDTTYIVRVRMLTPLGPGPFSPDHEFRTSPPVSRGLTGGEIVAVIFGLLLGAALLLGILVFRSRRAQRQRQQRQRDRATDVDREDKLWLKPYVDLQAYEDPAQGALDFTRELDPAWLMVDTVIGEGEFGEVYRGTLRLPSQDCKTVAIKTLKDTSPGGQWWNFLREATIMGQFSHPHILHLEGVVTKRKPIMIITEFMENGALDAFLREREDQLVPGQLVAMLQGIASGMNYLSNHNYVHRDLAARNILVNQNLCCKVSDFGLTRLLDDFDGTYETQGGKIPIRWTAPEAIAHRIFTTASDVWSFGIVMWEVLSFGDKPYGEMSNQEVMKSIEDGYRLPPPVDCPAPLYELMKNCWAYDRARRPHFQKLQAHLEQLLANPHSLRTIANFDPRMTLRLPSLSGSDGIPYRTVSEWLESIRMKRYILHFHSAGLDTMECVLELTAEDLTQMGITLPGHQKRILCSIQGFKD
Outline: as §1

MEKK3(h) = target: T4, MEKK3(h) (Homo sapiens, UniProt Q99759)
T4 construct: gene MAP3K3
T4 sequence (Q99759 1-626): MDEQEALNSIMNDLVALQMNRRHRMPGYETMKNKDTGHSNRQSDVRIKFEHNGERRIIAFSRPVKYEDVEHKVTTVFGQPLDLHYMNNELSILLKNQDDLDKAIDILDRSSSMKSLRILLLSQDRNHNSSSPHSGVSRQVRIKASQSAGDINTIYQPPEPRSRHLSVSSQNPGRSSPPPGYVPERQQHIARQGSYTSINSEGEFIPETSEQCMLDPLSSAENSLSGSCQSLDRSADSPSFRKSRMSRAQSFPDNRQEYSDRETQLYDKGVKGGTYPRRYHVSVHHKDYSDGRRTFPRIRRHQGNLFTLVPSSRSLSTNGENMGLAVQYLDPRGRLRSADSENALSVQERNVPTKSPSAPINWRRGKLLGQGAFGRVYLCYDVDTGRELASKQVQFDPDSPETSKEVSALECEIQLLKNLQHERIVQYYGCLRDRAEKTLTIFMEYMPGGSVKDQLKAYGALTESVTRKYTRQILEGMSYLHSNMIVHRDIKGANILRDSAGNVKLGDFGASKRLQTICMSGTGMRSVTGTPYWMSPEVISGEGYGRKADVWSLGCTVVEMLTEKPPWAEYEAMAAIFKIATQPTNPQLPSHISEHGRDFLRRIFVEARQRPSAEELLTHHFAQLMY
Outline: as §1

STK32C(h) = STK32C(h) (Homo sapiens, UniProt Q86UX6)
Chain of STK32C(h) (Q86UX6 whole entry): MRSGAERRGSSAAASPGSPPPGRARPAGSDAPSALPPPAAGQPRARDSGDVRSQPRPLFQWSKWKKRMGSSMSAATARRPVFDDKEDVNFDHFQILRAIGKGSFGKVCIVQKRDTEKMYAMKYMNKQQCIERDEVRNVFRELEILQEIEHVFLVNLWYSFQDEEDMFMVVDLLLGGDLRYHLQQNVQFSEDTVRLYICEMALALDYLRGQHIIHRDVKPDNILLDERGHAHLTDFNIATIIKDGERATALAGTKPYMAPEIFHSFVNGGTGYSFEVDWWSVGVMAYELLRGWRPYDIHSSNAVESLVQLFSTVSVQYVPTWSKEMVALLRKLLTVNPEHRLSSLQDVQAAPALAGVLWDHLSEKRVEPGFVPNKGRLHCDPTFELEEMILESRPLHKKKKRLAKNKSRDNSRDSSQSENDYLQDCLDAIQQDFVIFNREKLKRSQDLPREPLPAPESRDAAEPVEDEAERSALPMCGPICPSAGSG
Outline: as §1

[1] = read-out: Residual activity (%) Spautin-1 5aa
[2] = read-out: Residual activity (%) 5as
[3] = read-out: Residual activity (%) 5at
[4] = read-out: Residual activity (%) 5ay

Chain of DDR1(h) (Q08345 whole entry): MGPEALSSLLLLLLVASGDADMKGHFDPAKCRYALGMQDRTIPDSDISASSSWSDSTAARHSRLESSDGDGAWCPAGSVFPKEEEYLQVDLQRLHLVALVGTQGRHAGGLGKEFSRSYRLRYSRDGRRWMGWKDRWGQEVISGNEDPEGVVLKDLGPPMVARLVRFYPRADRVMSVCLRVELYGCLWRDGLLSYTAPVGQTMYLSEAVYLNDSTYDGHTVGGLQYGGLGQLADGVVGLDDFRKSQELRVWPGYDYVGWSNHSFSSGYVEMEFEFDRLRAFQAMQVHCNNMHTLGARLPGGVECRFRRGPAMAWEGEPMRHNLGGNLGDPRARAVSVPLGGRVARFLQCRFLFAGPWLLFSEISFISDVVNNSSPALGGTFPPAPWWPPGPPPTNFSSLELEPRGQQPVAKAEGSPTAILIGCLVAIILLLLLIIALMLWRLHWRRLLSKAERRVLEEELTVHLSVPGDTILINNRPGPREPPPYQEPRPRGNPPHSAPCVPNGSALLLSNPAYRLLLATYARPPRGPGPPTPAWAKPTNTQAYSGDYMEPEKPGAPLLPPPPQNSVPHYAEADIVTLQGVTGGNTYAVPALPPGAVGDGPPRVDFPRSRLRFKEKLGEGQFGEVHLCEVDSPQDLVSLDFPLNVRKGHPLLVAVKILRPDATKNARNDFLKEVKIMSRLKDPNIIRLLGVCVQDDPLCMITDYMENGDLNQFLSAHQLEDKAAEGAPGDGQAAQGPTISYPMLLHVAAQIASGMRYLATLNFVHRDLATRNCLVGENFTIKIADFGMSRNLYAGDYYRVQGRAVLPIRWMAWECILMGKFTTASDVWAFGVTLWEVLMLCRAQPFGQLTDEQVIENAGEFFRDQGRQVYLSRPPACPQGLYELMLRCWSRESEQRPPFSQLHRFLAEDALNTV

SMILES: Fc1ccc(CNc2ncnc3ccc(F)cc23)cc1 [5aa, 6-Fluoro-N-(4-fluorobenzyl)-4-Quinazolinamine]
- remaining activity at 10 µM (DDR1(h); [1]): 65%
- remaining activity at 10 µM (TSSK3(h); [1]): 111%
- remaining activity at 10 µM (PTK5(h); [1]): 85%
- remaining activity at 10 µM (HIPK2(h); [1]): 109%
- remaining activity at 10 µM (EphA1(h); [1]): 93%
- remaining activity at 10 µM (MEKK3(h); [1]): 93%
- remaining activity at 10 µM (STK32C(h); [1]): 106%

SMILES: Fc1ccc(CCNc2ncnc3ccc(F)cc23)cc1 [5as, 6-Fluoro-N-[2-(4-Fluorophenyl)Ethyl]-4-Quinazolinamine]
- remaining activity at 10 µM (DDR1(h); [2]): 29%
- remaining activity at 10 µM (TSSK3(h); [2]): 97%
- remaining activity at 10 µM (PTK5(h); [2]): 84%
- remaining activity at 10 µM (HIPK2(h); [2]): 96%
- remaining activity at 10 µM (EphA1(h); [2]): 66%
- remaining activity at 10 µM (MEKK3(h); [2]): 107%
- remaining activity at 10 µM (STK32C(h); [2]): 95%

SMILES: Fc1ccc2ncnc(NCCc3ccc(Cl)cc3)c2c1 [5at, N-[2-(4-Chlorophenyl)Ethyl]-6-Fluoro-4-Quinazolinamine]
- remaining activity at 10 µM (DDR1(h); [3]): 39%
- remaining activity at 10 µM (TSSK3(h); [3]): 95%
- remaining activity at 10 µM (PTK5(h); [3]): 95%
- remaining activity at 10 µM (HIPK2(h); [3]): 94%
- remaining activity at 10 µM (EphA1(h); [3]): 74%
- remaining activity at 10 µM (MEKK3(h); [3]): 98%
- remaining activity at 10 µM (STK32C(h); [3]): 106%

SMILES: COc1ccc2ncnc(Nc3cccc(F)c3)c2c1 [5ay, N-(3-Fluorophenyl)-6-Methoxy-4-Quinazolinamine]
- remaining activity at 10 µM (DDR1(h); [4]): 7%
- remaining activity at 10 µM (TSSK3(h); [4]): 104%
- remaining activity at 10 µM (PTK5(h); [4]): 64%
- remaining activity at 10 µM (HIPK2(h); [4]): 86%
- remaining activity at 10 µM (EphA1(h); [4]): 61%
- remaining activity at 10 µM (MEKK3(h); [4]): 83%
- remaining activity at 10 µM (STK32C(h); [4]): 102%
